Experiments:
Format in all cases: in vivo
[1] = tested on: Surinam grass (Brachiaria decumbens); assay: Test B postemergence
How it was run: (§1)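 Greenhouse test: chemicals are formulated in a surfactant-containing non-phytotoxic solvent and applied either preemergence to planted seeds or postemergence to plants 2 to 18 cm tall. Response is rated visually versus controls after 13 to 15 days, 0 meaning no effect and 100 complete control.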

[2] = tested on: barnyardgrass (Echinochloa crus-galli); assay: Test B postemergence
How it was run: as §1

[3] = tested on: blackgrass (Alopecurus myosuroides); assay: Test B postemergence
How it was run: as §1

[4] = tested on: cocklebur (Xanthium strumarium); assay: Test B postemergence
How it was run: as §1

corn (Zea mays) [5] = assay: Test B postemergence
How it was run: as §1

[6] = tested on: crabgrass (Digitaria sanguinalis); assay: Test B postemergence; conditions: Rate 125 g/ha, scale 0 to 100, 0 no effect, 100 complete control
How it was run: as §1

[7] = tested on: giant foxtail (Setaria faberii); assay: Test B postemergence; conditions: Rate 125 g/ha, scale 0 to 100, 0 no effect, 100 complete control
How it was run: as §1

[8] = tested on: lambsquarters (Chenopodium album); assay: Test B postemergence; conditions: Rate 125 g/ha, scale 0 to 100, 0 no effect, 100 complete control
How it was run: as §1

[9] = tested on: morning glory (Ipomoea hederacea); assay: Test B postemergence; conditions: Rate 125 g/ha, scale 0 to 100, 0 no effect, 100 complete control
How it was run: as §1

[10] = tested on: pigweed (Amaranthus retroflexus); assay: Test B postemergence; conditions: Rate 125 g/ha, scale 0 to 100, 0 no effect, 100 complete control
How it was run: as §1

[11] = tested on: velvetleaf (Abutilon theophrasti); assay: Test B postemergence; conditions: Rate 125 g/ha, scale 0 to 100, 0 no effect, 100 complete control
How it was run: as §1

[12] = tested on: wheat (Triticum aestivum); assay: Test B postemergence; conditions: Rate 125 g/ha, scale 0 to 100, 0 no effect, 100 complete control
How it was run: as §1

wild oat (Avena fatua) = assay: Test B postemergence; conditions: Rate 125 g/ha, scale 0 to 100, 0 no effect, 100 complete control
How it was run: as §1

[13] = tested on: Surinam grass (Brachiaria decumbens); assay: Test B preemergence
How it was run: as §1

[14] = tested on: barnyardgrass (Echinochloa crus-galli); assay: Test B preemergence
How it was run: as §1

[15] = tested on: cocklebur (Xanthium strumarium); assay: Test B preemergence
How it was run: as §1

corn (Zea mays) [16] = assay: Test B preemergence
How it was run: as §1

[17] = tested on: crabgrass (Digitaria sanguinalis); assay: Test B preemergence
How it was run: as §1

[18] = tested on: giant foxtail (Setaria faberii); assay: Test B preemergence
How it was run: as §1

[19] = tested on: lambsquarters (Chenopodium album); assay: Test B preemergence
How it was run: as §1

[20] = tested on: morning glory (Ipomoea hederacea); assay: Test B preemergence
How it was run: as §1

[21] = tested on: pigweed (Amaranthus retroflexus); assay: Test B preemergence
How it was run: as §1

rice (Oryza saliva) = assay: Test B preemergence
How it was run: as §1

[22] = tested on: velvetleaf (Abutilon theophrasti); assay: Test B preemergence
How it was run: as §1

Nightshade = assay: Test C preemergence; conditions: Rate 500 g/ha, visual evaluation after 12 to 14 days
Sunflower = assay: Test C preemergence; conditions: Rate 250 g/ha, scale 0 to 100, 0 no effect, 100 complete control
[23] = Rate 125 g/ha, scale 0 to 100, 0 no effect, 100 complete control
[24] = Rate 500 g/ha, scale 0 to 100, 0 is no effect, 100 is complete control, 13 to 15 days
[25] = Preemergence, Rate 500 g/ha, scale 0 to 100, 0 no effect, 100 complete control
[26] = preemergence, Rate 125 g/ha, scale of 0 to 100 where 0 is no effect and 100 is complete control, 13 to 15 days

CCC(C)Oc1cccc(N2CCC(n3ccc(C(C)(C)C)n3)C2=O)c1 (stereo not drawn) [Compound 127]
30: Plant response rating, Lambsquarters [8]
90: Plant response rating, Lambsquarters [19, 26]
50: Plant response rating, Rice (rice (Oryza saliva); [25])
100: Plant response rating, Barnyardgrass [14, 25] | Plant response rating, Crabgrass [17, 25] | Plant response rating, Crabgrass [17, 26] | Plant response rating, Foxtail, Giant [18, 25] | Plant response rating, Lambsquarters [19, 25] | Plant response rating, Pigweed [21, 25] | Plant response rating (0 to 100), Nightshade (Nightshade)
0: Plant response rating, Surinam grass [1, 23] | Plant response rating, Surinam grass [1, 24] | Plant response rating, Barnyardgrass [2, 23] | Plant response rating, Barnyardgrass [2, 24] | Plant response rating, Blackgrass [3, 23] | Plant response rating, Blackgrass [3, 24] | Plant response rating, Cocklebur [4, 23] | Plant response rating, Corn (corn (Zea mays) [5]; [23]) | Plant response rating, Corn (corn (Zea mays) [5]; [24]) | Plant response rating, Crabgrass [6] | Plant response rating, Foxtail, Giant [7] | Plant response rating, Morningglory [9] | Plant response rating, Pigweed [10] | Plant response rating, Velvetleaf [11] | Plant response rating, Wheat [12] | Plant response rating, Wild Oat (wild oat (Avena fatua)) | Plant response rating, Surinam grass [13, 26] | Plant response rating, Barnyardgrass [14, 26] | Plant response rating, Cocklebur [15, 25] | Plant response rating, Cocklebur [15, 26] | Plant response rating, Corn (corn (Zea mays) [16]; [25]) | Plant response rating, Corn (corn (Zea mays) [16]; [26]) | Plant response rating, Morningglory [20, 25] | Plant response rating, Morningglory [20, 26] | Plant response rating, Pigweed [21, 26] | Plant response rating, Rice (rice (Oryza saliva); [26]) | Plant response rating, Velvetleaf [22, 25] | Plant response rating, Velvetleaf [22, 26] | Plant response rating, Sunflower (Sunflower)
70: Plant response rating, Surinam grass [13, 25] | Plant response rating, Foxtail, Giant [18, 26]
60: Plant response rating, Cocklebur [4, 24]

CCOc1cccc(N2CCC(n3ccc(C(C)C)n3)C2=O)c1 (stereo not drawn) [Compound 128]
0: Plant response rating, Barnyardgrass [2, 23] | Plant response rating, Blackgrass [3, 23] | Plant response rating, Blackgrass [3, 24] | Plant response rating, Cocklebur [4, 23] | Plant response rating, Corn (corn (Zea mays) [5]; [23]) | Plant response rating, Corn (corn (Zea mays) [5]; [24]) | Plant response rating, Crabgrass [6] | Plant response rating, Foxtail, Giant [7] | Plant response rating, Lambsquarters [8] | Plant response rating, Morningglory [9] | Plant response rating, Pigweed [10] | Plant response rating, Velvetleaf [11] | Plant response rating, Wheat [12] | Plant response rating, Wild Oat (wild oat (Avena fatua)) | Plant response rating, Cocklebur [15, 26] | Plant response rating, Velvetleaf [22, 26]
80: Plant response rating, Barnyardgrass [2, 24]
60: Plant response rating, Cocklebur [15, 25] | Plant response rating, Corn (corn (Zea mays) [16]; [25])
30: Plant response rating, Corn (corn (Zea mays) [16]; [26])
90: Plant response rating, Morningglory [20, 25]
100: Plant response rating, Surinam grass [1, 24] | Plant response rating, Surinam grass [13, 25] | Plant response rating, Surinam grass [13, 26] | Plant response rating, Barnyardgrass [14, 25] | Plant response rating, Barnyardgrass [14, 26] | Plant response rating, Crabgrass [17, 25] | Plant response rating, Crabgrass [17, 26] | Plant response rating, Foxtail, Giant [18, 25] | Plant response rating, Foxtail, Giant [18, 26] | Plant response rating, Lambsquarters [19, 25] | Plant response rating, Lambsquarters [19, 26] | Plant response rating, Pigweed [21, 25] | Plant response rating, Pigweed [21, 26] | Plant response rating, Rice (rice (Oryza saliva); [25]) | Plant response rating, Rice (rice (Oryza saliva); [26]) | Plant response rating (0 to 100), Nightshade (Nightshade) | Plant response rating, Sunflower (Sunflower)
70: Plant response rating, Surinam grass [1, 23] | Plant response rating, Morningglory [20, 26]
50: Plant response rating, Cocklebur [4, 24] | Plant response rating, Velvetleaf [22, 25]

CCCC(C)c1ccn(C2CCN(c3cccc(OCC)c3)C2=O)n1 (stereo not drawn) [Compound 129]
10: Plant response rating, Sunflower (Sunflower)
60: Plant response rating, Barnyardgrass [2, 24] | Plant response rating (0 to 100), Nightshade (Nightshade)
100: Plant response rating, Lambsquarters [8] | Plant response rating, Surinam grass [13, 25] | Plant response rating, Barnyardgrass [14, 25] | Plant response rating, Barnyardgrass [14, 26] | Plant response rating, Crabgrass [17, 25] | Plant response rating, Crabgrass [17, 26] | Plant response rating, Foxtail, Giant [18, 25] | Plant response rating, Foxtail, Giant [18, 26] | Plant response rating, Lambsquarters [19, 25] | Plant response rating, Lambsquarters [19, 26] | Plant response rating, Pigweed [21, 25] | Plant response rating, Pigweed [21, 26]
0: Plant response rating, Surinam grass [1, 23] | Plant response rating, Surinam grass [1, 24] | Plant response rating, Barnyardgrass [2, 23] | Plant response rating, Blackgrass [3, 23] | Plant response rating, Blackgrass [3, 24] | Plant response rating, Cocklebur [4, 23] | Plant response rating, Corn (corn (Zea mays) [5]; [23]) | Plant response rating, Corn (corn (Zea mays) [5]; [24]) | Plant response rating, Crabgrass [6] | Plant response rating, Foxtail, Giant [7] | Plant response rating, Morningglory [9] | Plant response rating, Pigweed [10] | Plant response rating, Velvetleaf [11] | Plant response rating, Wheat [12] | Plant response rating, Wild Oat (wild oat (Avena fatua)) | Plant response rating, Cocklebur [15, 25] | Plant response rating, Cocklebur [15, 26] | Plant response rating, Morningglory [20, 25] | Plant response rating, Morningglory [20, 26] | Plant response rating, Velvetleaf [22, 25] | Plant response rating, Velvetleaf [22, 26]
90: Plant response rating, Surinam grass [13, 26]
50: Plant response rating, Rice (rice (Oryza saliva); [25])
30: Plant response rating, Cocklebur [4, 24] | Plant response rating, Corn (corn (Zea mays) [16]; [25]) | Plant response rating, Rice (rice (Oryza saliva); [26])
20: Plant response rating, Corn (corn (Zea mays) [16]; [26])
